Measured values: article PMC11189555, “Aryl amino acetamides prevent Plasmodium falciparum ring development via targeting the lipid-transfer protein PfSTART1” (Nature Communications, 2024)

Legend:
[1] = target: T1, PfSTART1 in parasite lysate (Plasmodium falciparum, UniProt Q8I298); test: Solvent profiling Western Blot (solvent induced protein precipitation); type: binding; settings: 10 µM W-991 vs DMSO, 0-25% AEF
T1 construct: endogenous in cells; host or cells: P. falciparum 3D7 schizonts, NP40-soluble lysate
T1 sequence (Q8I298 entry or part of it): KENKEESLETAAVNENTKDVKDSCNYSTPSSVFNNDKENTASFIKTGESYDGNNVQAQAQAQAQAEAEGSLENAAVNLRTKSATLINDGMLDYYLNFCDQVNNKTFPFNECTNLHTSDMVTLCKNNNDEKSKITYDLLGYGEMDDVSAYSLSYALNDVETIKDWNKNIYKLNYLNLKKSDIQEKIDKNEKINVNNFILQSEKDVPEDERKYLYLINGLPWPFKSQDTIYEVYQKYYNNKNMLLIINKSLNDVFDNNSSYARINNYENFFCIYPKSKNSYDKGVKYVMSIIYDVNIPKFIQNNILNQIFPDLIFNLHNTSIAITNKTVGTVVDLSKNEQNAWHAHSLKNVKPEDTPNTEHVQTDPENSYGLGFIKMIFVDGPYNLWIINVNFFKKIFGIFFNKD
Protocol: 3D7 parasites at schizont stage were harvested with 10 x pellet volume of 0.15% saponin in PBS. To extract soluble material, 10 x pellet volume of 0.4% NP40 (IGEPAL CA-630, Sigma-Aldrich) in PBS with 1x Complete Protease cocktail tablet (Sigma-Aldrich) was added to the parasite pellets and 3 cycles of freeze/thawing was performed. Samples were then mechanically sheared by passage through 25 G and 30 G needles before lysate was cleared via centrifugation at 16,000 g x 30 min at 4 °C. Soluble fractions were collected and stored at −80 °C until use.
For the solvent challenge, lysate was subjected to either W-991 (10 µM) or DMSO (0.1%) treatment for 3 min before aliquoted into final concentrations of 0-25% of Acetic acid/Ethanol/Formic acid (AEF) at a 50:50:0.1 (v/v/v)[25],[26]. The treated lysate and AEF mixture was incubated at 37 °C for 20 min at 800 rpm before aggregates were pelleted at 17,000 g x 20 min at 4 °C. Soluble fractions were removed, added to the final concentration of 1x NuPAGE LDS Sample Buffer (Invitrogen) with 1:100 2-mercaptoethanol (Sigma Aldrich) and boiled for 3 min. Proteins were separated on an 4-12% acrylamide gel (NuPAGE, Invitrogen) and subsequently transferred by electroblotting onto nitrocellulose membranes. Blots were probed with primary antibody anti-PfSTART1 (1:1000), followed by secondary antibody anti-rabbit-HRP (1:4000, Merck Millipore). […]

PfSTART1 = target: T2, PfSTART1 (Plasmodium falciparum, UniProt Q8I298); type: binding; settings: 100 µM W-991 vs DMSO; 7-25% AEF; p = 0.0014
T2 construct: endogenous in cells; host or cells: P. falciparum mature blood stages (30-42 hpi), soluble lysate
T2 sequence (Q8I298 entry or part of it): as above
Protocol: The experiment was carried out in three biological replicates. Saponin-liberated mature parasite stages (30-42 hpi) were resuspended in PBS and lysed by 3x flash freeze/thawing using liquid N2, followed by 10 x mechanical sheering with a 29 G needle-syringe, and soluble protein isolation through ultracentrifugation (100,000 g; 20 min, 4 °C). Protein lysate was exposed to the 100 µM of W-991 or the vehicle control (DMSO) for 3 min and subsequently incubated with varying concentration of the solvent mixture ‘AEF’ (50% Acetone, 50% Ethanol, 0.1% Formate) to a final concentration of 7-25% (v/v) with 2% intervals, for 20 min at 37 °C at 800 rpm on a Thermomixer (Eppendorf). Denatured protein was pelleted through centrifugation (4 °C, 18,000 g, 20 min), and the soluble phase was recovered and pulled together in equivolume ratios into two samples; Gradient 1 ‘G1’: 7-15% EAF and Gradient 2 ‘G2’: 17-25% EAF, respectively. […]
Peptide samples were analysed on Orbitrap Eclipse Tribrid mass spectrometer that is interfaced with the Neo Vanquish liquid chromatography system. […] Subsequently, the differential abundance analysis (moderated t-test, based on limma package[81]) of P. falciparum proteins was conducted in the R environment (R version 4.2.0; R Studio Version 2023.12.1 + 402) using precursor normalised MaxLFQ data for proteins detected with ≥2 peptides. […]

CC(C)(Nc1ccc(Cl)c(S(=O)(=O)N2CCOCC2)c1)C(=O)Nc1ccc(F)c(Cl)c1 [W-991]
AEF concentration at which protection to PfSTART1 aggregation was elicited [1]: 19-21 % AEF
soluble protein level in the presence of compound (stabilisation) (PfSTART1): significantly (p < 0.01) increased levels
